Laboratory results reported in patent US20260060982A1, “USE OF BTK INHIBITOR AND SINGLE-DOSE DRUG” (HUBEI BIO-PHARMACEUTICAL INDUSTRIAL TECHNOLOGICAL INSTITUTE …, priority 2023, published 2026).
Values belong to the compound of their own block, whether it stands above or below them.

How the values were obtained:
[1] = system: PG-PS-induced arthritis in Lewis rats; experiment: PG-PS-induced arthritis model in rats; assay type: in vivo
Text: Intraperitoneal injection of PG-PS suspension can effectively induce chronic, erosive, and relapsing symptoms similar to human rheumatoid arthritis in rats, and is often used to evaluate the in vivo effectiveness of medicaments in the early discovery of arthritis medicaments. The specific steps were as follows:
On day 0, Lewis rats were randomly divided into 6 groups, with 5 rats in the first group and 10 rats in each group from the second group to the sixth group. All rats in the second to sixth groups were intraperitoneally injected with PG-PS (Lee Laboratories, PG-PS 10S, 5.1 mg/ml Rhamnose) to establish the model. The PG-PS injection dose v=15 μg/g×bw (rat weight, in g)/5.1 μg/μL.
On day 1, the model rats (the second to sixth groups) were randomly redivided into 5 groups, with 10 rats in each group. The animals in each group were given the corresponding medicament or vehicle by gavage once a day until the 29th day. […] Clinical observations and clinical scoring were performed daily during the administration period. The ankle diameter of each animal after modeling was subtracted from its ankle diameter before modeling to obtain the ankle diameter difference (delta ankle diameter). The area under the curve (AUC) was calculated by analyzing the ankle diameter difference of each animal in each group. The inhibition rate of each administration group relative to the blank vehicle control was calculated by the average AUC between groups.
Pathology: On day 30, the rats were euthanized. The two hind limbs of rats were stained with toluidine blue to evaluate the degree of joint damage in terms of inflammatory cell lesions, pannus formation, cartilage damage, bone resorption, and periosteal new bone formation, and the severity was scored on a scale from 0 to 7.

[2] = system: collagen-induced arthritis in DBA/1 mice; experiment: Collagen-induced arthritis (CIA) model in mice; assay type: in vivo
Description: Clinical symptoms of arthritis were induced in mice by injecting collagen emulsion into the tail of mice. The specific steps were as follows:
DBA/1 mice were randomly divided into 6 groups, with 10 mice in each group except the blank control group (5 mice). […] The day of the first immunization was recorded as day 0, and the subsequent days were marked in sequence. DBA/1 mice were anesthetized with isoflurane and injected subcutaneously with 50 μl of the prepared collagen emulsion (containing 200 μg of CII) at the tail (2 cm to 3 cm from the base of the tail). On day 21, the same volume of collagen emulsion was injected into the tail in the same way.
On day 28, when the average clinical score reached 1 to 2, the mice were randomly redivided into 4 treatment groups (10 mice per group) and a blank vehicle control group (10 mice per group) according to body weight and score. […] The administration was performed once daily for 14 days by gavage at 10 mL/kg. After the administration, the clinical score curve of each animal in each group was analyzed to calculate the area under the curve (AUC). The inhibition rate of each administration group relative to the blank vehicle control was calculated based on the average AUC between groups.
Clinical observation: From 7 days before immunization to 21 days after immunization, the basic health status and weight changes of DBA/1 mice were observed daily (recorded twice a week). After day 22, the health status, disease incidence, and weight changes of the mice were observed daily (recorded every two days) until the end of the experiment.
When mice began to develop symptoms of arthritis (clinical symptoms of arthritis appeared), they were scored on a scale from 0 to 4 based on the severity of the lesions (redness, swelling, joint deformation), with a maximum score of 4 for each limb and a maximum score of 16 for each animal. The scoring was performed at least three times a week.
Pathology: On day 42, mice were euthanized. The two hind limbs of the mice were taken, soaked in 10% formalin solution, decalcified with formic acid solution, embedded in paraffin, sectioned, stained with hematoxylin-eosin (HE), and observed under a microscope. The degree of joint damage was evaluated from four aspects: inflammatory cell infiltration, pannus formation, cartilage damage, and bone resorption, and scored on a scale from 0 to 4.

[3] = system: IgM-induced calcium signaling in RAMOS cells; experiment: Antagonism of IgM-induced calcium signaling in RAMOS cells (FLIPR); assay type: cell-based; details: Fluo-4D dye
Description: The specific test steps were as follows:
A. Ramos cells (ECACC) were seeded in a 384 experimental plate using cell culture medium (RPMI 1640 medium supplemented with 10% fetal bovine serum) at a density of 5×10^6 cells/mL, 20 μL per well.
C. The cell plate and the compound plate were placed into FLIPR. 10 μL was transferred from the compound plate by the FLIPR instrument and added to the cell plate. The cell plate was removed and incubated in a 37° C. incubator for 1 h.
D. One hour later, 40 μL of Fluo-4D dye (Life Technologies, formulated as 0.5× with 40 mL of HBSS and HEPES buffer) was added to the cell plate and incubated at 37° C. for 50 min.
E. 10 μL of IgM at 8×EC80 concentration was added, and the plate was read using FLIPR.
F. The IC50 results of the compounds were analyzed using EXCEL and Prism statistical software.

[4] = system: anti-DNP IgE-induced passive cutaneous anaphylaxis in BALB/c mice; experiment: Passive cutaneous anaphylaxis (PCA) model in mice induced with anti-DNP IgE; assay type: in vivo
Text: Passive cutaneous anaphylaxis test, also known as PCA reaction, is a local allergic reaction caused by antibodies that bind to the same or different animal tissues. The PCA animal model in the present disclosure was a passive sensitization model in which IgE binds to specific receptors on skin mast cells. When allergens were stimulated, local mast cells released allergic mediators, thereby increasing local vascular permeability. […] The specific steps were as follows:
The PCA model in mice was induced using anti-DNP IgE. Specifically, BALB/c mice were divided into 9 groups, namely, a normal control group (no administration, injection, or feeding of any solvent), a model group (no administration, injection, or feeding of any solvent), a prednisone group (10 mg/kg, administered for 3 consecutive days, QD (once a day), prednisone concentration of 1 mg/mL, and an administration volume of 10 mL/kg), a cetirizine group (20 mg/kg, administered for 3 consecutive days, QD, cetirizine concentration of 2 mg/mL, and an administration volume of 10 mL/kg), a low-dose group and a medium-dose group for the test substance LOU-064 (15 mg/kg and 45 mg/kg, administered for 3 consecutive days, BID (twice a day), LOU-064 concentrations of 1.5 mg/mL and 4.5 mg/mL, and an administration volume of 10 mL/kg), and a low-dose group, a medium-dose group, and a high-dose group for compound (I) (15 mg/kg, 45 mg/kg, and 90 mg/kg, administered for 3 consecutive days, BID, compound (I) concentrations of 1.5 mg/mL, 4.5 mg/mL, and 9 mg/mL, and an administration volume of 10 mL/kg), with 9 mice in each group, administered by gavage for a total of 4 days. On day 3 of the administration, anti-DNP IgE (Sigma-Aldrich) was injected into the left ears of 8 groups of mice (no normal control group), and the same volume of PBS was injected into the right ears of 8 groups and the left and right ears of the normal control group to allow it to bind to mast cells. Then, 24 hours after the fourth day of anti-DNP IgE injection, a mixed solution of antigen (DNP-HAS, Sigma) and pigment Evan's Blue (Sigma) (0.25 mL/mouse, i.v.) was injected into the tail vein (the normal control group was injected with the same volume of the mixed solution of antigen and pigment Evan's Blue). The antigen reacted with the antibody attached to the mast cells, causing a local allergic reaction, increased local vascular permeability, and pigment penetration into the tissue. The reaction intensity was determined by measuring the local pigment content 30 minutes later. The dye was extracted from the left and right ears, and the absorbance of Evan's blue was measured at a specific wavelength. […] The efficacy effects of each test substances in the PCA animal model were evaluated.

IC50 [3]: 171 ± 4.03 nM
Compound: C=CC(=O)Nc1cccc(Nc2nc(Nc3ccc(OCCOC)cc3)ncc2F)c1 [CC-292, reference compound]
inhibition rate (AUC of ankle diameter difference vs blank vehicle control) ([1]; 3 mg/kg once a day by gavage until the 29th day): −0.1%
joint tissue lesions (pathology) ([1]; 3 mg/kg, day 30): more severe
histopathological score compared with the blank vehicle control group ([2]; 3 mg/kg): not significantly different
inflammation inhibition rate (AUC of clinical score vs blank vehicle control) ([2]; 3 mg/kg once daily by gavage for 14 days): 29.1%
pathology of foot joint bone tissue ([2]; 3 mg/kg, day 42): certain inflammation and more bone tissue damage

Compound: O=C(O)COCCN1CCN(C(c2ccccc2)c2ccc(Cl)cc2)CC1 (stereo not shown) [Cetirizine, cetirizine, reference compound]
Concentration of Evan's Blue, Left ear, Average value ([4]; 20 mg/kg QD by gavage): 22.70 µg/mL

Compound: C=CC(=O)N(C)CCOc1c(N)ncnc1-c1cc(F)cc(NC(=O)c2ccc(C3CC3)cc2F)c1C [LOU-064, reference compound]
Concentration of Evan's Blue, Left ear, Average value ([4]; 15 mg/kg BID by gavage): 24.45 µg/mL
Concentration of Evan's Blue, Left ear, Average value ([4]; 45 mg/kg BID by gavage): 17.24 µg/mL

Compound: C[C@]12C=CC(=O)C=C1CC[C@@H]1[C@@H]2C(=O)C[C@@]2(C)[C@H]1CC[C@]2(O)C(=O)CO [Prednisone, prednisone, reference compound]
Concentration of Evan's Blue, Left ear, Average value ([4]; 10 mg/kg QD by gavage): 25.36 µg/mL
